Results taken from patent US7109220B2, “Amino substituted pyridinyl methanone compounds useful in treating kinase disorders” (Janssen Pharmaceutica N.V., priority 2003, dated 2006).

Key:
Assay type in all cases: biochemical
CDK1:Cyclin-B = biological target: T1, CDK1:Cyclin-B (Homo sapiens, UniProt P06493); assay: CDK1 Screening Assay; conditions: 10 μM ATP, histone-H1 peptide substrate, 1 hour at 30° C.
T1 construct: purchased New England Biolabs, Beverly, Mass; (CDK1); BIOMOL, Plymouth Meeting, Pa; (Cyclin-B) #6020 (CDK1); #SE-195 (Cyclin-B); host or cells: insect cells
Description: (§1) A kinase reaction mixture was prepared containing 50 mM Tris-HCl pH=8, 10 mM MgCl2, 0.1 mM Na3PO4, 1 mM DTT, 10 μM ATP, 0.025 μM biotinylated histone-H1 peptide substrate and 0.2 μCuries per well^33P-γ-ATP [2000–3000 Ci/mmol]. 70 μL of the kinase reaction mixture was dispensed into the well of a streptavidin coated FlashPlate™ (Cat. #SMP103, NEN, Boston, Mass.). Then 1 μL of test compound stock in 100% DMSO was added to the wells resulting in a final concentration of 1% DMSO in the reaction with a 100 μL final reaction volume. CDK1:Cyclin-B protein^1 was diluted in 50 mM Tris-HCl pH=8.0, 0.1% BSA at a concentration of 1 ng per microliter. 30 μL (30 ng enzyme per test well) was added to each well to initiate the reaction, The reaction was incubated for one hour at 30° C. At the end of the 1-hour incubation, the reaction was terminated by aspirating the reaction mixture from the plate and washing the wells twice with PBS containing 100 mM EDTA. The histone-H1 biotinylated peptide substrate became immobilized on the Flashplate™ and the incorporation of ^33P-γ-ATP was measured by reading the plate on a scintillation counter. Inhibition of the enzymatic activity of CDK1 was measured by observing a reduced amount of ^33P-γ-ATP incorporated into the immobilized peptide. ^1CDK1 (cyclin dependent kinase 1) was isolated from insect cells expressing both the human CDK1 catalytic subunit and its positive regulatory subunit Cyclin B (CDK1: New England Biolabs, Beverly, Mass., Cat. #6020; Cyclin-B: BIOMOL, Plymouth Meeting, Pa., Cat. #SE-195); Peptide Substrate (Biotin)KTPKKAKKPKTPKKAKKL-Amide.
(§2) IC50 values listed as >10 or >100 indicate no observed 50% inhibition at the highest dose tested, nor was an inhibition maximum observed.

VEGF-R2 kinase = biological target: T2, VEGF-R2 kinase (Rattus norvegicus, UniProt O08775); assay: VEGF-R2 Kinase Screening Assay; conditions: soluble rat VEGF-R2 kinase, 10 μM ATP; read-out: VEGF-R IC50
T2 construct: polyhistidine (N)
Description: (§3) A kinase reaction mixture was prepared containing 50 mM Tris-HCl pH=8, 10 mM MgCl2, 0.1 mM Na3PO4, 1 mM DTT, 10 μM ATP, 0.025 uM biotinylated peptide substrate and 0.8 μCuries per well^33P-γ-ATP [2000–3000 Ci/mmol]. 70 μL of the kinase reaction mixture was dispensed into the well of a streptavidin coated FlashPlate™ (Cat. #SMP103, NEN, Boston, Mass.). 1 μL of test compound stock in 100% DMSO was added to the wells resulting in a final concentration of 1% DMSO in the mixture with a 100 μL final reaction volume. Soluble rat VEGF-R2 kinase^3 was diluted in 50 mM Tris-HCl pH=8.0, 0.1% BSA at a concentration of 5 ng per microliter and 30 μL (150 ng enzyme per test well) was added to each well to initiate the reaction. The reaction was incubated for one hour at 30° C. At the end of the 1-hour incubation, the reaction was terminated by aspirating the reaction mixture from the plate and washing the wells twice with PBS containing 100 mM EDTA. The PLC1 biotinylated peptide substrate became immobilized on the Flashplate™ and the incoporation of ^33P-γ-ATP was measured by reading the plate on a scintillation counter. Inhibition of the enzymatic activity of the VEGF-R was measured by observing a reduced amount of ^33P-γ-ATP incorporated into the immobilized peptide. ^3VEGF-R2 kinase (Vascular Endothelial Growth Factor Receptor-2): a fusion protein containing a polyhistidine tag at the N-terminus followed by amino acids 786–1343 of the rat VEGF-R2 kinase domain GenBank Accession #U93306); Peptide Substrate (Biotin)KHKKLAEGSAYEEV-Amide
as §2

CDK2:Cyclin-E = biological target: T3, CDK2:Cyclin-E (Homo sapiens, UniProt P24941); assay: CDK2 Screening Assay; conditions: 10 μM ATP, histone-H1 peptide substrate
T3 construct: purchased Upstate Biotechnology, Lake Placid, N.Y
Description: as §1
Using the procedure and materials of Example 1, replacing CDK1:Cyclin-B protein with CDK2:Cyclin-E protein^2, the IC50 data for CDK2 is shown in Table 2. ^2CDK2 (cyclin dependent kinase 2) in complex with cyclin E is commercially available (Upstate Biotechnology, Lake Placid, N.Y.); Peptide Substrate (Biotin)KTPKKAKKPKTPKKAKKL-Amide
IC50 values listed as ˜100 indicate no observed 50% inhibition at the highest dose tested, nor was an inhibition maximum observed.

HER2 kinase = biological target: T4, HER2 kinase (Homo sapiens, UniProt P04626); assay: HER-2 Kinase Screening Assay; conditions: HER2 cytoplasmic domain construct, 10 μM ATP
T4 construct: polyhistidine (N); 24 additional non-native amino acids (between the His tag and HER2) (N)
Description: as §3
Using the procedure and materials of Example 3, replacing VEGF-R2 kinase with HER2^4, the IC50 data for HER2 kinase is shown in Table 4. ^4HER2 (Human Epidermal Growth Factor Receptor-2): a construct containing a polyhistidine tag at the N-terminus followed by 24 additional non-native amino acids beginning at amino acid 676 (Accession number M11730) followed by the remainder of the HER2 cytoplasmic domain; Peptide Substrate (Biotin)KHKKLAEGSAYEEV-Amide.
IC50 values listed as >100 indicate no observed 50% inhibition at the highest dose tested, nor was an inhibition maximum observed.

T2 sequence (O08775 786-1343): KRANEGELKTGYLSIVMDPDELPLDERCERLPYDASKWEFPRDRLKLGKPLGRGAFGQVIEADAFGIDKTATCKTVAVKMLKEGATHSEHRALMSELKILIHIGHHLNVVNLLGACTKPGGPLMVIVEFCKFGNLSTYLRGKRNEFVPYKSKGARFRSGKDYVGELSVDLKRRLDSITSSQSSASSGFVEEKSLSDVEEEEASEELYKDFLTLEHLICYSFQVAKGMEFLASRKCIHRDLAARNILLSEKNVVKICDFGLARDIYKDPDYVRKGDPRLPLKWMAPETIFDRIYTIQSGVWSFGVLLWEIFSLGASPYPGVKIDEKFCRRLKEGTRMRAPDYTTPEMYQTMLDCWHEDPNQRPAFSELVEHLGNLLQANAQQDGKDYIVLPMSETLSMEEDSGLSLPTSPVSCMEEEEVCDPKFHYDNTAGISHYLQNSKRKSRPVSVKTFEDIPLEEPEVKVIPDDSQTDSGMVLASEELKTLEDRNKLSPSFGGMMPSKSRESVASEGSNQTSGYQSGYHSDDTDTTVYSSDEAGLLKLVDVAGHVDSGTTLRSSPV
T1 sequence (P06493 whole entry): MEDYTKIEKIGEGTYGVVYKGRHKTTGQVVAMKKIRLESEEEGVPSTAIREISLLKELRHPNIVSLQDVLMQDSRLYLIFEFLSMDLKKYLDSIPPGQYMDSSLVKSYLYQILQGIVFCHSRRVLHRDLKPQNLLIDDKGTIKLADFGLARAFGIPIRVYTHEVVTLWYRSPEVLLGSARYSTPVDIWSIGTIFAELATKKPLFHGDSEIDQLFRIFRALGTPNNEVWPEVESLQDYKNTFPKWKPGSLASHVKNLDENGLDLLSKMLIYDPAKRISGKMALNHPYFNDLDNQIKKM
T1 sequence (P14635 whole entry partner): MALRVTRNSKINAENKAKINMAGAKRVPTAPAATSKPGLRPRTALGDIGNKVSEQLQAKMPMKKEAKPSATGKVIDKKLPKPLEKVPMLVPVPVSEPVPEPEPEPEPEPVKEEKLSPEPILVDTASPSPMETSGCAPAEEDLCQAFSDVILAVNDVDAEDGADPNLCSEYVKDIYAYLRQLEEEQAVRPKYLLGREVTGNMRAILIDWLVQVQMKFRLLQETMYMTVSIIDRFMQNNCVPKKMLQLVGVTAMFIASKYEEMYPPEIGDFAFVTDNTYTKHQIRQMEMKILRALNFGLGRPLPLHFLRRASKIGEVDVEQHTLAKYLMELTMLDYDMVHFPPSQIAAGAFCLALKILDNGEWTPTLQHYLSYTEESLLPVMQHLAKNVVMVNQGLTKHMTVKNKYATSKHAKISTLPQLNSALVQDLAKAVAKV
T4 sequence (P04626 676-1255 limits assumed): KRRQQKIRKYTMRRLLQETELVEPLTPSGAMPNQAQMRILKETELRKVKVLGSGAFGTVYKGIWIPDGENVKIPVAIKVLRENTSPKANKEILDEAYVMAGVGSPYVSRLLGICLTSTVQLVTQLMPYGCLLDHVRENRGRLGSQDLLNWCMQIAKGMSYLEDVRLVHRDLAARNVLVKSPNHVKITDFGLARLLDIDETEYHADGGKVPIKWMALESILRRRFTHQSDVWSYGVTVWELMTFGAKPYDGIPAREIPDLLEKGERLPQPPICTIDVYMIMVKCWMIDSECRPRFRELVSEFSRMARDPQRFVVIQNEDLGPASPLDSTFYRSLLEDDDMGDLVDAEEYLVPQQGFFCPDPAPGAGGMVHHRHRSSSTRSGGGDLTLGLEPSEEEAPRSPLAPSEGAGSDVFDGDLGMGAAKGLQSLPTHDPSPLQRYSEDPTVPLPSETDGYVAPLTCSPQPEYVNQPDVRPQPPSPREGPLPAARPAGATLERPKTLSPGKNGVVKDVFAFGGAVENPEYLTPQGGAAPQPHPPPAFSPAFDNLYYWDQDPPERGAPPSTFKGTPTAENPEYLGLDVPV

Molecule	IC50 (CDK1:Cyclin-B)	IC50 (VEGF-R2 kinase)	IC50 (CDK2:Cyclin-E)	IC50 (HER2 kinase)
CC(=O)Nc1ccccc1Nc1ccc(C(=O)c2c(F)cccc2F)c(N)n1 [Cpd 21, N-[2-[[6-amino-5-(2,6-difluorobenzoyl)-2-pyridinyl]amino]phenyl]acetamide]	> 100 µM	> 100 µM	–	–
Nc1nc(Nc2cccc(Cl)c2)ccc1C(=O)c1c(F)cccc1F [Cpd 11, [2-amino-6-[(3-chlorophenyl)amino]-3-pyridinyl](2,6-difluorophenyl)methanone]	6.16 µM	> 100 µM	–	–
CCN(CC)S(=O)(=O)c1ccc(Nc2ccc(C(=O)c3ccccc3)c(N)n2)cc1 [Cpd 26, 4-[(6-amino-5-benzoyl-2-pyridinyl)amino]-N,N-diethylbenzenesulfonamide]	> 100 µM	> 100 µM	–	–
CCCCOc1cc(Nc2ccc(S(=O)(=O)N(C)C)cc2)nc(N)c1C(=O)c1c(F)cccc1F [Cpd 35, 4-[6-Amino-4-butoxy-5-(2,6-difluoro-benzoyl)-pyridin-2-ylamino]-N,N-dimethyl-benzenesulfonamide]	~1 µM	> 100 µM	0.62 µM	> 100 µM
Nc1ccc(C(=O)c2ccccc2)c(N)n1 [Cpd 3, (2,6-diamino-3-pyridinyl)phenylmethanone]	–	> 10 µM	–	–
Nc1nc(Nc2ccccc2[N+](=O)[O-])ccc1C(=O)c1c(F)cccc1F [Cpd 12, [2-amino-6-[(2-nitrophenyl)amino]-3-pyridinyl](2,6-difluorophenyl)methanone]	> 10 µM	> 10 µM	–	–
Nc1nc(Nc2ccc(C(=O)O)cc2)ccc1C(=O)c1c(F)cccc1F [Cpd 16, 4-[[6-amino-5-(2,6-difluorobenzoyl)-2-pyridinyl]amino]benzoic acid]	–	> 10 µM	–	–
Nc1nc(Nc2ccc(NS(=O)(=O)c3ccccc3)cc2)ccc1C(=O)c1c(F)cccc1F [Cpd 19, N-[4-[[6-amino-5-(2,6-difluorobenzoyl)-2-pyridinyl]amino]phenyl]benzenesulfonamide]	–	> 10 µM	–	–
Nc1ccc(C(=O)c2ccco2)c(N)n1 [Cpd 4, (2,6-diamino-3-pyridinyl)-2-furylmethanone]	> 100 µM	> 100 µM	–	–
Nc1ccc(Nc2ccc(C(=O)c3c(F)cccc3F)c(N)n2)cc1 [Cpd 17, [2-amino-6-[(4-aminophenyl)amino]-3-pyridinyl](2,6-difluorophenyl)methanone]	–	> 10 µM	–	–
Nc1nc(Nc2ccccc2NS(=O)(=O)c2ccccc2)ccc1C(=O)c1c(F)cccc1F [Cpd 23, N-[2-[[6-amino-5-(2,6-difluorobenzoyl)-2-pyridinyl]amino]phenyl]benzenesulfonamide]	> 100 µM	> 100 µM	–	–
Nc1nc(Nc2ccccc2)ccc1C(=O)c1c(F)cccc1F [Cpd 13, [2-amino-6-(phenylamino)-3-pyridinyl](2,6-difluorophenyl)methanone]	21.7 µM	> 100 µM	–	–
Nc1nc(Nc2ccccn2)ccc1C(=O)c1c(F)cccc1F [Cpd 14, [2-amino-6-(2-pyridinylamino)-3-pyridinyl](2,6-difluorophenyl)methanone]	–	> 100 µM	–	–
Nc1ccccc1Nc1ccc(C(=O)c2c(F)cccc2F)c(N)n1 [Cpd 20, [2-amino-6-[(2-aminophenyl)amino]-3-pyridinyl](2,6-difluorophenyl)methanone]	–	> 100 µM	–	–
Nc1ccc(C(=O)c2cccs2)c(N)n1 [Cpd 5, (2,6-diamino-3-pyridinyl)-2-thienylmethanone]	> 100 µM	> 100 µM	–	–
Nc1nc(Nc2ccc(S(N)(=O)=O)cc2)ccc1C(=O)c1c(F)cccc1F [Cpd 6, 4-[[6-amino-5-(2,6-difluorobenzoyl)-2-pyridinyl]amino]benzenesulfonamide]	–	> 10 µM	–	–
CN(C)S(=O)(=O)c1ccc(Nc2ccc(C(=O)c3cccs3)c(N)n2)cc1 [Cpd 29, 4-[[6-amino-5-(2-thienylcarbonyl)-2-pyridinyl]amino]-N,N-dimethylbenzene sulfonamide]	–	> 100 µM	–	–
CN(C)S(=O)(=O)c1ccc(Nc2ccc(C(=O)c3ccccc3F)c(N)n2)cc1 [Cpd 24, 4-[[6-amino-5-(2-fluorobenzoyl)-2-pyridinyl]amino]-N,N-dimethyl benzenesulfonamide]	–	> 100 µM	–	–
Nc1nc(Nc2ccc(S(=O)(=O)N(Cc3ccccc3)Cc3ccccc3)cc2)ccc1C(=O)c1c(F)cccc1F [Cpd 2b, 4-[[6-amino-5-(2,6-difluorobenzoyl)-2-pyridinyl]amino]-N,N-bis(phenylmethyl)benzenesulfonamide]	> 10 µM	> 10 µM	–	–
CN(C)S(=O)(=O)c1ccc(Nc2ccc(C(=O)c3ccccc3)c(N)n2)cc1 [Cpd 25, 4-[(6-amino-5-benzoyl-2-pyridinyl)amino]-N,N-dimethylbenzenesulfonamide]	–	> 100 µM	–	–
CNc1ccc(Nc2ccc(C(=O)c3c(F)cccc3F)c(N)n2)cc1 [Cpd 18, [2-amino-6-[[4-(methylamino)phenyl]amino]-3-pyridinyl](2,6-difluorophenyl)methanone]	–	> 10 µM	–	–
Nc1ccc(C(=O)c2ccccc2F)c(N)n1 [Cpd 2, (2,6-diamino-3-pyridinyl)(2-fluorophenyl)methanone]	–	> 10 µM	–	–
Nc1nc(Nc2ccccc2NC(=O)c2ccccc2)ccc1C(=O)c1c(F)cccc1F [Cpd 22, N-[2-[[6-amino-5-(2,6-difluorobenzoyl)-2-pyridinyl]amino]phenyl]benzamide]	> 100 µM	> 100 µM	–	–
Nc1nc(Nc2cccc([N+](=O)[O-])c2)ccc1C(=O)c1c(F)cccc1F [Cpd 10, [2-amino-6-[(3-nitrophenyl)amino]-3-pyridinyl](2,6-difluorophenyl)methanone]	–	> 100 µM	–	–
CN(C)S(=O)(=O)c1ccc(Nc2ccc(C(=O)c3ccco3)c(N)n2)cc1 [Cpd 27, 4-[[6-amino-5-(2-furanylcarbonyl)-2-pyridinyl]amino]-N,N-dimethyl benzenesulfonamide]	–	> 100 µM	–	–
CN(C)S(=O)(=O)c1ccc(Nc2ccc(C(=O)c3c(F)cccc3F)c(N)n2)cc1 [Cpd 7, 4-[[6-amino-5-(2,6-difluorobenzoyl)-2-pyridinyl]amino]-N,N-dimethylbenzenesulfonamide]	0.26 µM	> 10 µM	–	–
CCN(CC)S(=O)(=O)c1ccc(Nc2ccc(C(=O)c3ccco3)c(N)n2)cc1 [Cpd 28, 4-[[6-amino-5-(2-furanylcarbonyl)-2-pyridinyl]amino]-N,N-diethylbenzenesulfonamide]	> 100 µM	> 100 µM	–	–
4-[[6-amino-5-(2,6-difluorobenzoyl)-2-pyridinyl]amino]benzonitrile [Cpd 15]	0.95 µM	> 10 µM	–	–
